AUC(0-t) data for two compounds are collected here from ChEMBL document CHEMBL2202982, “Synthesis and SAR development of novel mGluR1 antagonists for the treatment of chronic pain” (Bioorg Med Chem Lett, 2012).

The data set can be described thus: in vivo. The note with it: rat, po.

With `Cc1ccc(-n2cnc3c(sc4ncnc(NC5CC5)c43)c2=O)cc1`, the AUC(0-t) at 6 h turned out to be 0.89 µM·h.
In the case of `COc1ccc(-n2cnc3c(sc4ncnc(NC5CC5)c43)c2=O)cc1F`, the AUC(0-t) at 6 h is 8.6 µM·h.

Broadly, the AUC(0-t) is the area under the concentration-time curve up to a stated or last time point.
